Data set [1] deals with mitochondrial membrane fusion-related proteins Mfn1, Mfn2. Nature of the data set: Western blot of mitochondrial membrane fusion-related proteins in HAECs. The class given is cell-based, human. As to the method: Human aortic endothelial cells (HAECs) were purchased from Shanghai Shanghai Bioleaf Biotech Co., Ltd. Palmitic acid (PA) was purchased from SIGMA Company. A palmitic acid solution having a concentration of 500 μM was prepared by dissolving palmitic acid in water. A cell culture incubator was adopted to culture the cells in a temperature-constant, humidified, sterile condition. The cells were cultured in wells of culture plates at an atmosphere of 95% air and 5% CO2 at 37° C. in the incubator. The experiments were performed on different experimental groups of cells. The experiments were performed on three experimental groups of cells: (1) control group; (2) 500 μM palmitic acid treatment group; and (3) hydroxytyrosol acetate protection group. […]
The medium for cell culture in the wells was removed. […] The supernatants were collected, and the proteins therein were quantified by bicinchoninic acid (BCA) assay, and normalized. […]
10 μg of the extracted proteins were subjected to gel electrophoresis with 10% acrylamide gel, and electrophoretic transferred onto a PVDF membrane, which were blocked, and incubated with a primary antibody at 4° C. overnight, free primary antibody was washed away. […] Target proteins were detected by chemiluminescence.
Background: Immunoblotting shows a protein as a band on a membrane.

For data set [2], the system named is matrix metalloproteinase-1 (MMP-1) mRNA. The data set can be described thus: mRNA level corresponding to MMP-1 (RT-PCR) in HAECs. The class given is cell-based, human. As to conditions: 500 μM palmitic acid, 24 h. As to the method:
(§1) Human aortic endothelial cells (HAECs) were purchased from Shanghai Shanghai Bioleaf Biotech Co., Ltd. Palmitic acid (PA) was purchased from SIGMA Company. A palmitic acid solution having a concentration of 500 μM was prepared by dissolving palmitic acid in water. A cell culture incubator was adopted to culture the cells in a temperature-constant, humidified, sterile condition. The cells were cultured in wells of culture plates at an atmosphere of 95% air and 5% CO2 at 37° C. in the incubator. The experiments were performed on different experimental groups of cells. […]
(§2) The HAECs that were previously cultured in a 12-well cell culture plate were divided into 5 different experimental groups and respectively applied with hydroxytyrosol acetate in respective concentrations, 0 μM, 0 μM, 10 μM, 50 μM, and 100 μM, all followed with an 24-hour incubation. […] The detecting of mRNA levels corresponding to interleukin-6 (IL-6), matrix metalloproteinase-1 (MMP-1), intercellular adhesion molecule-1 (ICAM-1) and plasma plasminogen activator inhibitor-1 (PAI-1) were respectively carried out on each group of cells by using reverse transcription RNA and real-time quantitative polymerase chain reaction (PCR), and the specific method is as follows:
(§3) The medium for cell culture in the wells was removed. […] The concentration of the solution was measured by an ultraviolet spectrophotometer. […]

For data set [3], the system named is reactive oxygen species in human aortic endothelial cells. The data set can be described thus: Detection of reactive oxygen species (H2DCF-DA) in HAECs. Type of data set: cell-based. As to the method: (§4) Human aortic endothelial cells (HAECs) were purchased from Shanghai Shanghai Bioleaf Biotech Co., Ltd. Palmitic acid (PA) was purchased from SIGMA Company. A palmitic acid solution having a concentration of 500 μM was prepared by dissolving palmitic acid in water. A cell culture incubator was adopted to culture the cells in a temperature-constant, humidified, sterile condition. The cells were cultured in wells of culture plates at an atmosphere of 95% air and 5% CO2 at 37° C. in the incubator. The experiments were performed on different experimental groups of cells. The experiments were performed on three experimental groups of cells: (1) control group; (2) 500 μM palmitic acid treatment group; and (3) hydroxytyrosol acetate protection group.
The cultured HAECs were divided into 3 different experimental groups, the control (Ctrl) group, the PA group, and the hydroxytyrosol acetate+PA (HTac+PA) group. The cells of the HTac+PA group were applied with hydroxytyrosol acetate in a concentration of 100 μM followed with a 24-hour incubation. Then, the cells of both the PA group and the HTac+PA group were applied with 500 μM palmitic acid, all followed with another 24-hour incubation.
After treating the cells with hydroxytyrosol acetate and palmitic acid, and discarding the medium, the cells were rinsed once with PBS. […] The supernatant was collected and measured by a microplate reader.

In data set [4] the test system is interleukin-6 (IL-6) mRNA. Nature of the data set: mRNA level corresponding to IL-6 (RT-PCR) in HAECs. The class given is cell-based, human. As to conditions: 500 μM palmitic acid, 24 h. As to the method: as §1, §2, §3
Data set [5] deals with IL-6, MMP-1, ICAM-1 and PAI-1 mRNA in human aortic endothelial cells. The data set can be described thus: mRNA levels of IL-6, MMP-1, ICAM-1 and PAI-1 (RT-PCR) in palmitic acid-induced inflammation of HAECs. Type of data set: cell-based. As to the method: as §4
The HAECs that were previously cultured in a 12-well cell culture plate were divided into 5 different experimental groups and respectively applied with hydroxytyrosol acetate in respective concentrations, 0 μM, 0 μM, 10 μM, 50 μM, and 100 μM, all followed with an 24-hour incubation. Then, the last 4 groups of cells were respectively applied with 500 μM palmitic acid, the first was not, all followed with another 24-hour incubation. The detecting of mRNA levels corresponding to interleukin-6 (IL-6), matrix metalloproteinase-1 (MMP-1), intercellular adhesion molecule-1 (ICAM-1) and plasma plasminogen activator inhibitor-1 (PAI-1) were respectively carried out on each group of cells by using reverse transcription RNA and real-time quantitative polymerase chain reaction (PCR), and the specific method is as follows:
The medium for cell culture in the wells was removed. 500 μL of TRIzol™ reagent was added to each well, and the culture plate was then shaken at room temperature for 5 minutes. Then the cells in the wells were collected and transferred to a 1.5 mL Eppendorf® (EP) tube. 200 μl (taking ⅕ of total volume of the substance in the EP tube) of chloroform was then added to the EP tube for extraction of protein. […] The concentration of the solution was measured by an ultraviolet spectrophotometer. […]

Data set [6] concerns human aortic endothelial cells (HAECs). The data set can be described thus: MTT assay, relative cell viability of human aortic endothelial cells. The class given is cell-based. As to the method:
as §4
The HAECs that were previously cultured in a 12-well cell culture plate were divided into 4 different experimental groups and respectively applied with hydroxytyrosol acetate in different concentrations, 0 μM, 10 μM, 50 μM, and 100 μM, all followed with an 24-hour incubation. […]
An MTT assay was performed to all groups of cells. […] The absorbance was measured at a wavelength of 490 nm in a spectrophotometer. The absorbance of this colored solution can be quantified by measuring at a certain wavelength (usually between 500 and 600 nm) by a spectrophotometer.
In general terms: Formazan colour is commonly taken as a measure of viable cells.

The mark [7] stands for this setting: 100 μM, 24 h pre-treatment, then 500 μM palmitic acid 24 h.

`CCCCCCCCCCCCCCCC(=O)O` [palmitic acid, reference compound]: in data set [1] (500 μM palmitic acid, 24 h), the “expression of mitochondrial membrane fusion-related proteins Mfn1, Mfn2” value is recorded as “reducing”. Also, in data set [2], the “increase of mRNA level corresponding to MMP-1 versus control” value is “about 10 times”. Further, the “production of reactive oxygen species ROS” value in data set [3] (500 μM palmitic acid, 24 h) was “a large amount”. In data set [4], the “increase of mRNA level corresponding to IL-6 versus control” value is recorded as “about 20 times”. Further, the “inflammatory cytokines IL-6, MMP-1, ICAM-1 and PAI-1 versus control group” value in data set [5] (500 μM palmitic acid, 24 h) is listed as “significantly higher”.
For the compound hydroxytyrosol acetate, the “expression of Mfn2” value in data set [1] (setting [7]) is “significantly increasing”. Moreover, the “production of excessive reactive oxygen species induced by palmitic acid” value in data set [3] (setting [7]) was “significantly inhibit”. Also, the “proliferation of human aortic endothelial cells” value in data set [6] (100 μM hydroxytyrosol acetate, 24 h) is on record as “promoted”. The “toxic and side effects on human aortic endothelial cells” value in data set [6] (HAECs, 0-100 μM, FIG. 1) was “no toxic and side effects”. In addition, the “inhibition of the palmitic acid-induced inflammatory response (mRNA IL-6, MMP-1, ICAM-1, PAI-1)” value in data set [5] (50 μM, 24 h pre-treatment, then 500 μM palmitic acid 24 h) was “significant inhibition”. Further, the “inhibitory effect on the palmitic acid-induced inflammatory response (mRNA IL-6, MMP-1, ICAM-1, PAI-1)” value in data set [5] (100 μM, 24 h pre-treatment, then 500 μM palmitic acid 24 h, compared with 50 μM) is on record as “more obvious”.
